Experimental data reported in ChEMBL document CHEMBL4390709, “Design, synthesis and biological evaluation of benzimidazole derivatives as novel human Pin1 inhibitors” (Bioorg Med Chem Lett, 2019).

Assays:
[1] = target: Peptidyl-prolyl cis-trans isomerase NIMA-interacting 1 (Homo sapiens, UniProt Q13526); experiment: Inhibition of recombinant human Pin1 (Met1 to Glu163 residues) expressed in Escherichia coli using Suc-Ala-Glu-cis-Pro-Phe-4-nitroanilide as substrate preincubated for 30 mins followed by substrate addition and measured for 90 secs by protease-coupled assay
PC-3 [2] = experiment: Cell cycle arrest in human PC3 cells assessed as accumulation at subG1-phase at 5 uM measured after 24 hrs by propidium iodide staining based flow cytometry (reference value: 0.65%); format: functional
PC-3 [3] = experiment: Cell cycle arrest in human PC3 cells assessed as increase in accumulation at G0/G1-phase measured after 24 hrs by propidium iodide staining based flow cytometry; format: functional
PC-3 [4] = experiment: Cell cycle arrest in human PC3 cells assessed as accumulation at subG1-phase at 2.5 uM measured after 24 hrs by propidium iodide staining based flow cytometry (reference value: 0.65%); format: functional
PC-3 [5] = experiment: Cell cycle arrest in human PC3 cells assessed as accumulation at G0/G1-phase at 10 uM measured after 24 hrs by propidium iodide staining based flow cytometry (reference value: 54.26%); format: functional
PC-3 [6] = experiment: Cell cycle arrest in human PC3 cells assessed as accumulation at G0/G1-phase at 2.5 uM measured after 24 hrs by propidium iodide staining based flow cytometry (reference value: 54.26%); format: functional
PC-3 [7] = experiment: Cell cycle arrest in human PC3 cells assessed as accumulation at G2/M-phase at 10 uM measured after 24 hrs by propidium iodide staining based flow cytometry (reference value: 28.31%); format: functional
PC-3 [8] = experiment: Cell cycle arrest in human PC3 cells assessed as accumulation at G0/G1-phase at 5 uM measured after 24 hrs by propidium iodide staining based flow cytometry (reference value: 54.26%); format: functional
PC-3 [9] = experiment: Cell cycle arrest in human PC3 cells assessed as accumulation at G2/M-phase at 5 uM measured after 24 hrs by propidium iodide staining based flow cytometry (reference value: 28.31%); format: functional
PC-3 [10] = experiment: Antiproliferative activity against human PC3 cells measured after 96 hrs by MTT assay; format: functional; conditions: PC-3, 96 h
PC-3 [11] = experiment: Cell cycle arrest in human PC3 cells assessed as accumulation at G2/M-phase at 2.5 uM measured after 24 hrs by propidium iodide staining based flow cytometry (reference value: 28.31%); format: functional
PC-3 [12] = experiment: Cell cycle arrest in human PC3 cells assessed as accumulation at subG1-phase at 10 uM measured after 24 hrs by propidium iodide staining based flow cytometry (reference value: 0.65%); format: functional

Peptidyl-prolyl cis-trans isomerase NIMA-interacting 1, sequence (Q13526 whole entry): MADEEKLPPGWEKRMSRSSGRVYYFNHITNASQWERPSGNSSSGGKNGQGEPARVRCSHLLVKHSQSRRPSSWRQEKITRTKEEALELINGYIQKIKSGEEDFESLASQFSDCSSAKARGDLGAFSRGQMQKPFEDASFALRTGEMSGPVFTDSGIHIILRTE

| SMILES | IC50 [1] [µM] | further results |
| --- | --- | --- |
| O=C(CCn1c(-c2ccc(C(=O)O)cc2)nc2ccccc21)Oc1cccc2ccccc12 | 1.87 |  |
| O=C(O)c1ccc(-c2nc3ccccc3n2CCCOc2ccc(Oc3ccccc3)cc2)cc1 | 2.2 |  |
| Cc1cccc(NC(=O)CCn2c(CCC(=O)O)nc3ccccc32)c1 | 7.56 |  |
| O=C(O)c1ccc(-c2nc3ccccc3n2CCC(=O)N(c2ccccc2)c2ccc3ccccc3c2)cc1 | 1.53 |  |
| Cc1ccccc1NC(=O)CCn1c(CCC(=O)O)nc2ccccc21 | 9.81 |  |
| CS(=O)(=O)NC(=O)c1ccc(-c2nc3ccccc3n2CCCOc2cccc3ccccc23)cc1 | 7.83 |  |
| O=C(CCn1c(-c2ccc(C(=O)O)cc2)nc2ccccc21)Nc1cccc([N+](=O)[O-])c1 | 13.6 |  |
| O=C(CCn1c(-c2ccc(C(=O)O)cc2)nc2ccccc21)Oc1ccc(Oc2ccccc2)cc1 | 1.02 |  |
| COc1cc(NC(=O)CCn2c(-c3ccc(C(=O)O)cc3)nc3ccccc32)cc(OC)c1 | 3.57 |  |
| O=C(O)c1ccc(-c2nc3ccccc3n2CCCOc2cccc3ccccc23)cc1 | 0.33 |  |
| COc1cccc(NC(=O)CCn2c(-c3ccc(C(=O)O)cc3)nc3ccccc32)c1 | 18.7 |  |
| O=C(CCn1c(-c2ccc(C(=O)O)cc2)nc2ccccc21)Nc1cc(Cl)cc(Cl)c1 | 2.89 |  |
| O=C(NS(=O)(=O)c1ccccc1)c1ccc(-c2nc3ccccc3n2CCCOc2cccc3ccccc23)cc1 | 1 | Activity (PC-3 [2]): 0.49%; Activity (PC-3 [3]): Dose-dependent effect; Activity (PC-3 [4]): 0.52%; Activity (PC-3 [5]): 64.24%; Activity (PC-3 [6]): 58.33%; Activity (PC-3 [7]): 27.2%; Activity (PC-3 [8]): 62.46%; Activity (PC-3 [9]): 27.86%; GI50 (PC-3 [10]): 9 µM; Activity (PC-3 [11]): 29.01%; Activity (PC-3 [12]): 0.37% |
| O=C(O)c1ccc(-c2nc3ccccc3n2CCC(=O)N(Cc2ccccc2)Cc2ccccc2)cc1 | 5.4 |  |
| Cc1cccc(NC(=O)CCn2c(-c3ccc(C(=O)O)cc3)nc3ccccc32)c1 | 1.1 |  |
| Cc1ccccc1NC(=O)CCn1c(-c2ccc(C(=O)O)cc2)nc2ccccc21 | 7.27 |  |
| O=C(CCn1c(-c2ccc(C(=O)O)cc2)nc2ccccc21)Nc1cccc(C(F)(F)F)c1 | 11.3 |  |
| Cc1cc(OCCCn2c(-c3ccc(C(=O)O)cc3)nc3ccccc32)cc(C)c1Cl | 0.47 |  |
| O=C(NS(=O)(=O)C(F)(F)F)c1ccc(-c2nc3ccccc3n2CCCOc2cccc3ccccc23)cc1 | 2.26 |  |
| CC(C)(C)c1ccc(OCCCn2c(-c3ccc(C(=O)O)cc3)nc3ccccc32)cc1 | 1.89 |  |
| CC(C)(C)c1ccc(OC(=O)CCn2c(-c3ccc(C(=O)O)cc3)nc3ccccc32)cc1 | 13.9 |  |
| O=C(O)CCc1nc2ccccc2n1CCC(=O)Nc1ccccc1 | 19.7 |  |
| Cc1cc(OC(=O)CCn2c(-c3ccc(C(=O)O)cc3)nc3ccccc32)cc(C)c1Cl | 0.72 |  |
